Measurements reported in ChEMBL document CHEMBL3431459, “Roche carnitine palmitoyltransferase modulator screening data (supplementary data associated with the publication CHEMBL2216752)”.
In brackets after ≈: the same amount, converted by molar mass.

Tests used:
[1] = molecular target: T1, Carnitine O-palmitoyltransferase 1, muscle isoform (Homo sapiens, UniProt Q92523); experiment: SUPPLEMENTARY: Inhibition of Carnitine palmitoyltransferase 1, muscle isoform; set-up: species or system Muscle tissue
T1 sequence (Q92523 whole entry): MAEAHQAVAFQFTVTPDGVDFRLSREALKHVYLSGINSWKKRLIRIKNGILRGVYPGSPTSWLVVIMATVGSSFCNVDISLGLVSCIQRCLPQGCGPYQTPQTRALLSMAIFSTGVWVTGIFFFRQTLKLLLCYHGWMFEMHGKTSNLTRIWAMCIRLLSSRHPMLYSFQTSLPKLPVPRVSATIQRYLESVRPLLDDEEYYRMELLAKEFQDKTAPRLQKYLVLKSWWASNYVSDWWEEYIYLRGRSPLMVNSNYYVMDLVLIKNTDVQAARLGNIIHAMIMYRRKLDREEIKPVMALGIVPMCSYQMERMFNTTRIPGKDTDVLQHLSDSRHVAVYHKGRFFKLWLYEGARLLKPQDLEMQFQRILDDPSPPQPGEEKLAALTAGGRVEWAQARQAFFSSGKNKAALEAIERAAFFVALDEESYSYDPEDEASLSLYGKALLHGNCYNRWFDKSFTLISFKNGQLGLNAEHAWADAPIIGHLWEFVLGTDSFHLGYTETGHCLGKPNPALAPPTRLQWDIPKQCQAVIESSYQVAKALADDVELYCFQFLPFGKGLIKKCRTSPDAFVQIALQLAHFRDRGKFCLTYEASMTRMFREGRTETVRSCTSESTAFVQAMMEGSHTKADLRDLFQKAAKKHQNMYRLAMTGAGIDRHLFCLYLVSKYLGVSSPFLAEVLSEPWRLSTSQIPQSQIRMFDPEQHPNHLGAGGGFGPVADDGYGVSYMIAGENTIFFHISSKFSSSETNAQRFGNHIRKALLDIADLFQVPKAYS

[2] = molecular target: T2, Carnitine O-palmitoyltransferase 2, mitochondrial (Homo sapiens, UniProt P23786); experiment: (§1) SUPPLEMENTARY: Inhibition of Carnitine palmitoyltransferase 2
T2 sequence (P23786 whole entry): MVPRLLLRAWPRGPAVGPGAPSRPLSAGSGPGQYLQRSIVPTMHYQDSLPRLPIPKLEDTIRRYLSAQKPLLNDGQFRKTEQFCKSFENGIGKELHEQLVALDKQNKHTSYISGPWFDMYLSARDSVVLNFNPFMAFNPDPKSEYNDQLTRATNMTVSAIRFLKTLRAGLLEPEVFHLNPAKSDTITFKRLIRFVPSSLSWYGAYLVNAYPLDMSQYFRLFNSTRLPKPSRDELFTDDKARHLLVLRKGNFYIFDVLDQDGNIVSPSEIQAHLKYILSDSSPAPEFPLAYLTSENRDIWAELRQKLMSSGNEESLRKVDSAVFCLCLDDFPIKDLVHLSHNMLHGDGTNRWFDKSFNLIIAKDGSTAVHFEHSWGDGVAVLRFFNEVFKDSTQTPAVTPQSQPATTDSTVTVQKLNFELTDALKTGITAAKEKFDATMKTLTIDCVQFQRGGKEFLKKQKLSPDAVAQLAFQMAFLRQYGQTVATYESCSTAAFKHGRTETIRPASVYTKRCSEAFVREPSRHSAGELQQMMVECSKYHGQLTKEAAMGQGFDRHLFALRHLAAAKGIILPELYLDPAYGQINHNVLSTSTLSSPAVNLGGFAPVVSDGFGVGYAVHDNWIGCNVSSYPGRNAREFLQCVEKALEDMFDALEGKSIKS

[3] = molecular target: T3, Carnitine O-palmitoyltransferase 2, mitochondrial (Rattus norvegicus, UniProt P18886); experiment: as §1
T3 sequence (P18886 whole entry): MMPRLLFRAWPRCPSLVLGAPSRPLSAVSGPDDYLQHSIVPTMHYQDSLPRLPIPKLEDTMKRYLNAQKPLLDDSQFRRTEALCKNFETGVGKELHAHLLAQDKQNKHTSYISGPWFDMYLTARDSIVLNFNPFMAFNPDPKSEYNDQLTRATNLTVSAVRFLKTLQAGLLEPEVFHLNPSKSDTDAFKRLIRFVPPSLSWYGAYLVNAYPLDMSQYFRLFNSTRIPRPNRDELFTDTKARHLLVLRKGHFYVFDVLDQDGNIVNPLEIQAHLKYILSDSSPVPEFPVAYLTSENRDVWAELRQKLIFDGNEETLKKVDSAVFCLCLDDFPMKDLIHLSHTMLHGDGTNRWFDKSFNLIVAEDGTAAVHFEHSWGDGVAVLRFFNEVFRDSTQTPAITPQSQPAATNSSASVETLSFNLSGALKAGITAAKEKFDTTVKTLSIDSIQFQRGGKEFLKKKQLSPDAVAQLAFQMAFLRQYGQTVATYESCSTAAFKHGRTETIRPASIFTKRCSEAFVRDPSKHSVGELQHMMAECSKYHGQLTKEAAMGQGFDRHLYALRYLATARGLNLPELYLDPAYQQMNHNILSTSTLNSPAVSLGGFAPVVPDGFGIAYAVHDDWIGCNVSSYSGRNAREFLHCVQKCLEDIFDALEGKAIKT

[4] = molecular target: T4, Carnitine O-palmitoyltransferase 1, liver isoform (Homo sapiens, UniProt P50416); experiment: (§2) SUPPLEMENTARY: Inhibition of Carnitine palmitoyltransferase 1, liver isoform
T4 sequence (P50416 whole entry): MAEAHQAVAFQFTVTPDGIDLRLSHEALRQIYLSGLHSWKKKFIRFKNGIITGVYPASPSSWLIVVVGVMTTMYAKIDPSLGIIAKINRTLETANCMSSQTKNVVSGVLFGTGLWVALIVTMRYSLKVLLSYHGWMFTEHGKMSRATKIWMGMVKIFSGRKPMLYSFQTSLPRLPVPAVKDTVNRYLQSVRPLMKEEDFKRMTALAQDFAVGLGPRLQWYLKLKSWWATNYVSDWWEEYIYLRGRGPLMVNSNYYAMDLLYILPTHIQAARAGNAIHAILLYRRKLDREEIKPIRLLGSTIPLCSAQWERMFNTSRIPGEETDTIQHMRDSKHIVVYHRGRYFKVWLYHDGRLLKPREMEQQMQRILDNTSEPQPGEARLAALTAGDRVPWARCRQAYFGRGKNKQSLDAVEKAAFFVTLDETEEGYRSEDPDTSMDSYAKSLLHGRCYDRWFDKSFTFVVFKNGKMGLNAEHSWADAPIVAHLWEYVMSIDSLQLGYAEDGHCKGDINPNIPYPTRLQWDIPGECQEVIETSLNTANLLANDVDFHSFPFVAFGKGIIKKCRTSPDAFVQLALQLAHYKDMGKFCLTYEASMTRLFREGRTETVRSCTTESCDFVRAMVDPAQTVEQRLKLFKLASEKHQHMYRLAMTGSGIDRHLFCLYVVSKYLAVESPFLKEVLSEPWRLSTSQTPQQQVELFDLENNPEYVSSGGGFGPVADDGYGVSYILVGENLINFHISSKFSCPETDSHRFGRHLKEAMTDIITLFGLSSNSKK

[5] = molecular target: T5, Carnitine O-palmitoyltransferase 1, liver isoform (Rattus norvegicus, UniProt P32198); experiment: as §2
T5 sequence (P32198 whole entry): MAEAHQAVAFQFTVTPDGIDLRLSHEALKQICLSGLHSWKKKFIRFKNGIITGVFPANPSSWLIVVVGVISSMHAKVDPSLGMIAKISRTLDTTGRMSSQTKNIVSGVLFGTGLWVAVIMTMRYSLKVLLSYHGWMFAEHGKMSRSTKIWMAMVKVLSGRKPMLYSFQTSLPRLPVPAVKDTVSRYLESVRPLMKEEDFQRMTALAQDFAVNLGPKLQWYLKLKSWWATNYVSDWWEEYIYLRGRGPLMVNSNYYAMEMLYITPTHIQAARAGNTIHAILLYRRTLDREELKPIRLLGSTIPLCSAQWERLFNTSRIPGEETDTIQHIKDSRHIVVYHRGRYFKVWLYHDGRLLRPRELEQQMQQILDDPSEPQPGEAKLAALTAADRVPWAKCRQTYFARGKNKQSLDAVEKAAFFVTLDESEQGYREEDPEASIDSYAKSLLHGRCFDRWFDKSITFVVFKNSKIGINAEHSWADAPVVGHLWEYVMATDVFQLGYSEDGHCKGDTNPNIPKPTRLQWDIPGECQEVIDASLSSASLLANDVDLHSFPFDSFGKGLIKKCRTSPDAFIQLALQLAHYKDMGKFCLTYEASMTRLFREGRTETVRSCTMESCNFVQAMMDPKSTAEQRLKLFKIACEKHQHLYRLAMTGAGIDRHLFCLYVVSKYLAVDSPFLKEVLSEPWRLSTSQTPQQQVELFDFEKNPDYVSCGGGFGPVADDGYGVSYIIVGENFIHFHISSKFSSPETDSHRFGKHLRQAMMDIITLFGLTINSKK

[6] = SUPPLEMENTARY: Lyophilisation Solubility Assay (LYSA); format: physicochemical; details: read-out: Kinetic_solubility
[7] = SUPPLEMENTARY: Lipophilicity (log D) Determination by high-throughput shake-flask; format: physicochemical; details: octanol/water
[8] = SUPPLEMENTARY: PAMPA permeability assay; format: physicochemical; details: read-out: Permeability

Row | IC50 [1] [nM] | IC50 [2] [nM] | IC50 [3] [nM] | IC50 [4] [nM] | IC50 [5] [nM] | solubility kinetic [6] [µg/mL] | logD [7] | Papp [8] [×10⁻⁶ cm/s] | Compound
1 | 1210 | > 100000 | > 100000 | 67.9 | 38.5 | 277 (≈ 513 µM) | -0.06 | 2.22 | COc1ccc(Cl)cc1S(=O)(=O)N(C)c1cc(C(=O)Nc2ncc(CC(=O)O)s2)cc2c1OCO2
2 | > 100000 | 701 | 1120 | 259 | 263 | 5 (≈ 11.5 µM) | 2.97 | 2.7 | O=C([C@H]1CCCCN1C(=O)COc1ccccc1)N1Cc2ccc(OCC3CC3)cc2C1
3 | 3170 | > 100000 | > 100000 | 53.9 | 38.3 | 3 (≈ 5.58 µM) | 2.55 | 1.88 | COc1ccc(Cl)cc1S(=O)(=O)N1CCOc2c(C)cc(C(=O)Nc3nc(CC(=O)O)cs3)cc21
4 | 439 | > 100000 | > 100000 | 75.4 | 54.5 | 26 (≈ 53.1 µM) | 0.25 | 0.95 | Cn1cc(S(=O)(=O)c2cccc(Cl)c2)c2cc(C(=O)Nc3nc(CC(=O)O)cs3)ccc21
5 | 535 | > 100000 | > 100000 | 46.8 | 19.7 | 418 (≈ 836 µM) | 1.21 | 0.96 | COc1ccc(Cl)cc1CN1C(=O)C(C)(C)c2ccc(C(=O)Nc3nc(CC(=O)O)cs3)cc21
6 | > 100000 | > 100000 | > 100000 | 168 | 1250 | 191 (≈ 467 µM) | 1.05 | 2.86 | NC(=O)c1cncc(-c2noc([C@H]3COCCN3C(=O)COc3ccccc3)n2)c1
7 | 21900 | > 100000 | > 100000 | 132 | 203 | 50 (≈ 102 µM) | 0.06 | 1.7 | COc1ccc(Cl)cc1CN1C(=O)OCc2ccc(C(=O)Nc3nc(CC(=O)O)cs3)cc21
8 | > 100000 | 78400 | > 100000 | 191 | 222 | 50.5 (≈ 126 µM) | 2.83 | 3.5 | COC1CCC(c2nc([C@H]3CCCCN3C(=O)COc3ccccc3)no2)CC1 (stereo not given in full)
9 | 10400 | 43500 | 41200 | 165 | 194 | 78 (≈ 181 µM) | 3.29 | 1.75 | O=C(COc1ccncc1)N1CCCC[C@@H]1c1nnc(-c2cccc(C(F)(F)F)c2)[nH]1
10 | > 100000 | 12000 | > 100000 | 59.1 | 334 | 48 (≈ 108 µM) | 2.35 | 3.47 | O=C(COc1ccccc1)N1CCCC[C@@H]1c1noc(-c2cccc(-n3cn[nH]c3=O)c2)n1
11 | 78100 | 14500 | > 100000 | 167 | 334 | 17 (≈ 42.1 µM) | 2.75 | 6.32 | O=C(COc1ccccc1)N1CCCC[C@@H]1c1nc(-c2ccc3nccn3c2)no1
12 | > 100000 | > 100000 | > 100000 | 82.7 | 250 | 23 (≈ 60.5 µM) | 3.5 | 1.45 | O=C(COc1ccccc1)N1CCCC[C@@H]1c1nc(-c2cccc(F)c2)n[nH]1
13 | > 100000 | > 100000 | > 100000 | 35.8 | 89.3 | 35 (≈ 80.6 µM) | 3.12 | 3.74 | O=C1COc2ccc(-c3nc([C@H]4CCCCN4C(=O)COc4ccccc4)no3)cc2N1
14 | > 100000 | > 100000 | > 100000 | 44400 | > 10000 | < 1 | 3.95 | 2.27 | O=C(COc1ccccc1)N1CCC(n2c(COc3ccccc3)nc3cc(F)ccc32)CC1
15 | > 100000 | > 100000 | > 100000 | 50.9 | 327 | 113 (≈ 268 µM) | 2.54 | 5.4 | CC(=O)Nc1cc(-c2nc([C@H]3CCCCN3C(=O)COc3ccccc3)no2)ccn1
